Assay results as given in ChEMBL document CHEMBL4418493, “N-hydroxyformamide compounds and compositions comprising them for use as BMP1, TLL1 and/or TLL2 inhibitors” (2018).
pIC50: −log10 of the molar value.

Assays:
[1] = Reduction in PICP levels in human cardiac fibroblasts incubated for 24 to 48 hrs by ELISA; format: functional
[2] = Reduction in mature collagen deposition levels in human cardiac fibroblasts incubated for 24 to 48 hrs by immunostaining based assay; format: functional
[3] = Drug metabolism in heparinized pooled human plasma at pH 7.5 assessed as formation of (S)-2-(2-(carboxymethoxy)-4-(5-((((R)-2-((R)-1-(N-hydroxyformamido)propyl)heptanamido)methyl)carbamoyl)furan-2-yl)benzamido)succinic acid at 100 to 2000 ng/ml incubated up to 4 or 24 hrs by LC-MS/MS analysis; format: ADME, cell-free; conditions: pH 7.5, 24 h
[4] = Drug metabolism in heparinized pooled human plasma at pH 7.5 assessed as formation of (S)-2-(2-ethoxy-4-(5-((((R)-2-((R)-1-(N-hydroxyformamido)propyl)heptanamido)methyl) carbamoyl)furan-2-yl)benzamido)succinic acid at 100 to 2000 ng/ml incubated up to 4 or 24 hrs by LC-MS/MS analysis; format: ADME, cell-free; conditions: pH 7.5, 24 h
[5] = Drug metabolism in heparinized pooled human plasma at pH 7.5 assessed as conversion to active compound at 100 to 2000 ng/ml incubated for 4 by LC-MS/MS analysis; format: ADME, cell-free
[6] = Stability in pH 7.96 assessed as compound purity level at 1 mg/ml heated to 40 degC and measured at 200 hrs by LC/MS analsysis; format: physicochemical; conditions: buffer, read-out: Stability
[7] = Drug metabolism in heparinized pooled human plasma at pH 7.5 assessed as formation of (3-ethoxy-5-(5-((((R)-2-((R)-1-(N-hydroxyformamido)propyl)heptanamido)methyl)carbamoyl) furan-2-yl)phenyl)phosphonic acid at 100 to 2000 ng/ml incubated up to 4 or 24 hrs by LC-MS/MS analysis; format: ADME, cell-free; conditions: pH 7.5, 24 h

Row | Drug metabolism [3] | Drug metabolism [4] | Drug metabolism [5] | remaining at 200 h, 1 mg/ml [6] | Drug metabolism [7] | SMILES | pIC50 [1] | pIC50 [2]
1 |  | Metabolite_Detected |  |  |  | CCCCC[C@@H](C(=O)NCNC(=O)c1ccc(-c2ccc(C(=O)N[C@@H](CC(=O)O)C(=O)O)c(OCC)c2)o1)[C@@H](CC)N(C=O)OC(=O)c1ccc(-n2cnnc2)cc1 | > 5.40 | > 6.00
2 |  | Metabolite_Detected |  |  |  | CCCCC[C@@H](C(=O)NCNC(=O)c1ccc(-c2ccc(C(=O)N[C@@H](CC(=O)O)C(=O)O)c(OCC)c2)o1)[C@@H](CC)N(C=O)OC(=O)c1ccc(OC)cc1OC(F)(F)F | > 5.40 | > 6.00
3 |  | Metabolite_Detected |  |  |  | CCCCC[C@@H](C(=O)NCNC(=O)c1ccc(-c2ccc(C(=O)N[C@@H](CC(=O)O)C(=O)O)c(OCC)c2)o1)[C@@H](CC)N(C=O)OC(=O)c1ccccc1C | > 5.40 | > 6.00
4 |  | Metabolite_Detected |  |  |  | CCCCC[C@@H](C(=O)NCNC(=O)c1ccc(-c2ccc(C(=O)N[C@@H](CC(=O)O)C(=O)O)c(OCC)c2)o1)[C@@H](CC)N(C=O)OC(=O)c1ccc(O)cc1 | > 5.40 | > 6.00
5 |  | Metabolite_Detected |  |  |  | CCCCC[C@@H](C(=O)NCNC(=O)c1ccc(-c2ccc(C(=O)N[C@@H](CC(=O)O)C(=O)O)c(OCC)c2)o1)[C@@H](CC)N(C=O)OC(=O)c1ccc(OC)cc1OC | > 5.40 | > 6.00
6 |  | Metabolite_Detected |  |  |  | CCCCC[C@@H](C(=O)NCNC(=O)c1ccc(-c2ccc(C(=O)N[C@@H](CC(=O)O)C(=O)O)c(OCC)c2)o1)[C@@H](CC)N(C=O)OC(=O)c1ccccc1C(C)C | > 5.40 | > 6.00
7 |  | Metabolite_Detected | > 10% | < 80% |  | CCCCC[C@@H](C(=O)NCNC(=O)c1ccc(-c2ccc(C(=O)N[C@@H](CC(=O)O)C(=O)O)c(OCC)c2)o1)[C@@H](CC)N(C=O)OC(=O)Cc1ccccc1 |  | 
8 |  | Metabolite_Detected | > 10% | < 80% |  | CCCCC[C@@H](C(=O)NCNC(=O)c1ccc(-c2ccc(C(=O)N[C@@H](CC(=O)O)C(=O)O)c(OCC)c2)o1)[C@@H](CC)N(C=O)OC(=O)c1ccccc1 | > 5.40 | 
9 |  | Metabolite_Detected |  |  |  | CCCCC[C@@H](C(=O)NCNC(=O)c1ccc(-c2ccc(C(=O)N[C@@H](CC(=O)O)C(=O)O)c(OCC)c2)o1)[C@@H](CC)N(C=O)OC(=O)c1ccc(OC)cc1F | > 5.40 | > 6.00
10 |  | Metabolite_Detected |  |  |  | CCCCC[C@@H](C(=O)NCNC(=O)c1ccc(-c2ccc(C(=O)N[C@@H](CC(=O)O)C(=O)O)c(OCC)c2)o1)[C@@H](CC)N(C=O)OC(=O)c1cccc(-n2cccc2)c1 | > 5.40 | > 6.00
11 |  | Metabolite_Detected |  |  |  | CCCCC[C@@H](C(=O)NCNC(=O)c1ccc(-c2ccc(C(=O)N[C@@H](CC(=O)O)C(=O)O)c(OCC)c2)o1)[C@@H](CC)N(C=O)OC(=O)c1ccc(OC)cc1C(F)(F)F | > 5.40 | > 6.00
12 |  | Metabolite_Detected |  |  |  | CCCCC[C@@H](C(=O)NCNC(=O)c1ccc(-c2ccc(C(=O)N[C@@H](CC(=O)O)C(=O)O)c(OCC)c2)o1)[C@@H](CC)N(C=O)OC(=O)c1ccc(N2CCCC2)c(F)c1.N.N | > 5.40 | > 6.00
13 |  | Metabolite_Detected |  |  |  | CCCCC[C@@H](C(=O)NCNC(=O)c1ccc(-c2ccc(C(=O)N[C@@H](CC(=O)O)C(=O)O)c(OCC)c2)o1)[C@@H](CC)N(C=O)OC(=O)c1c(C)ccnc1C | > 5.40 | > 6.00
14 |  | Metabolite_Detected |  |  |  | CCCCC[C@@H](C(=O)NCNC(=O)c1ccc(-c2ccc(C(=O)N[C@@H](CC(=O)O)C(=O)O)c(OCC)c2)o1)[C@@H](CC)N(C=O)OC(=O)c1ccc(C(F)(F)F)cc1C | > 5.40 | > 6.00

Continued, compound first:

Row | SMILES | Drug metabolism [3] | Drug metabolism [4] | Drug metabolism [5] | remaining at 200 h, 1 mg/ml [6] | Drug metabolism [7] | pIC50 [1] | pIC50 [2]
15 | CCCCC[C@@H](C(=O)NCNC(=O)c1ccc(-c2ccc(C(=O)N[C@@H](CC(=O)O)C(=O)O)c(OCC(=O)O)c2)o1)[C@@H](CC)N(C=O)OC(=O)c1ccc(OC)cc1C.N.N.N | Metabolite_Detected |  |  |  |  | > 5.40 | > 6.00
16 | CCCCC[C@@H](C(=O)NCNC(=O)c1ccc(-c2ccc(C(=O)N[C@@H](CC(=O)O)C(=O)O)c(OCC(=O)O)c2)o1)[C@@H](CC)N(C=O)OC(=O)c1ccccc1O | Metabolite_Detected |  | > 10% | < 80% |  |  | 
17 | CCCCC[C@@H](C(=O)NCNC(=O)c1ccc(-c2cc(OCC)cc(P(=O)(O)O)c2)o1)[C@@H](CC)N(C=O)OC(=O)Nc1ccccc1 |  |  |  |  | Metabolite_Detected | > 5.40 | 
18 | CCCCC[C@@H](C(=O)NCNC(=O)c1ccc(-c2ccc(C(=O)N[C@@H](CC(=O)O)C(=O)O)c(OCC(=O)O)c2)o1)[C@@H](CC)N(C=O)OC(=O)OC(C)(C)C | Metabolite_Detected |  | > 10% | < 80% |  | > 5.40 | 
19 | CCCCC[C@@H](C(=O)NCNC(=O)c1ccc(-c2cc(OCC)cc(P(=O)(O)O)c2)o1)[C@@H](CC)N(C=O)OC(=O)c1ccc2c(c1)OCCO2 |  |  |  |  | Metabolite_Detected | > 5.40 | > 6.00
20 | CCCCC[C@@H](C(=O)NCNC(=O)c1ccc(-c2cc(OCC)cc(P(=O)(O)O)c2)o1)[C@@H](CC)N(C=O)OCOP(=O)(O)O |  |  | > 10% |  | Metabolite_Detected |  | 
21 | CCCCC[C@@H](C(=O)NCNC(=O)c1ccc(-c2ccc(C(=O)N[C@@H](CC(=O)O)C(=O)O)c(OCC)c2)o1)[C@@H](CC)N(C=O)OC(=O)NC(C)(C)C |  | Metabolite_Detected |  |  |  | > 5.40 | > 6.00
22 | CCCCC[C@@H](C(=O)NCNC(=O)c1ccc(-c2ccc(C(=O)N[C@@H](CC(=O)O)C(=O)O)c(OCC(=O)O)c2)o1)[C@@H](CC)N(C=O)OC(=O)c1ccccc1OC(C)=O | Metabolite_Detected |  | > 10% | < 80% |  | > 5.40 | 
23 | CCCCC[C@@H](C(=O)NCNC(=O)c1ccc(-c2ccc(C(=O)N[C@@H](CC(=O)O)C(=O)O)c(OCC)c2)o1)[C@@H](CC)N(C=O)OC(=O)NC(C)(C)c1ccccc1 |  | Metabolite_Detected |  |  |  | > 5.40 | > 6.00
24 | CCCCC[C@@H](C(=O)NCNC(=O)c1ccc(-c2ccc(C(=O)N[C@@H](CC(=O)O)C(=O)O)c(OCC(=O)O)c2)o1)[C@@H](CC)N(C=O)OC(=O)c1ccccc1 | Metabolite_Detected |  | > 10% | < 80% |  |  | 
25 | CCCCC[C@@H](C(=O)NCNC(=O)c1ccc(-c2cc(OCC)cc(P(=O)(O)O)c2)o1)[C@@H](CC)N(C=O)OC(=O)c1ccc(OC)cc1 |  |  |  |  | Metabolite_Detected | > 5.40 | > 6.00
26 | CCCCC[C@@H](C(=O)NCNC(=O)c1ccc(-c2ccc(C(=O)N[C@@H](CC(=O)O)C(=O)O)c(OCC(=O)O)c2)o1)[C@@H](CC)N(C=O)OC(=O)c1cccnc1 | Metabolite_Detected |  | > 10% | < 80% |  | > 5.40 | 
27 | CCCCC[C@@H](C(=O)NCNC(=O)c1ccc(-c2cc(OCC)cc(P(=O)(O)O)c2)o1)[C@@H](CC)N(C=O)OC(=O)Cc1ccccc1 |  |  | > 10% | < 80% | Metabolite_Detected |  | 
28 | CCCCC[C@@H](C(=O)NCNC(=O)c1ccc(-c2cc(OCC)cc(P(=O)(O)O)c2)o1)[C@@H](CC)N(C=O)OC(=O)c1ccc(N2CCOCC2)cc1C.N.N |  |  |  |  | Metabolite_Detected | > 5.40 | 
29 | CCCCC[C@@H](C(=O)NCNC(=O)c1ccc(-c2ccc(C(=O)N[C@@H](CC(=O)O)C(=O)O)c(OCC)c2)o1)[C@@H](CC)N(C=O)OC(=O)OC(C)(C)C |  | Metabolite_Detected |  |  |  | > 5.40 | > 6.00
30 | CCCCC[C@@H](C(=O)NCNC(=O)c1ccc(-c2ccc(C(=O)N[C@@H](CC(=O)O)C(=O)O)c(OCC(=O)O)c2)o1)[C@@H](CC)N(C=O)OCOP(=O)(O)O | Metabolite_Detected |  | > 10% |  |  |  | 
31 | CCCCC[C@@H](C(=O)NCNC(=O)c1ccc(-c2cc(OCC)cc(P(=O)(O)O)c2)o1)[C@@H](CC)N(C=O)OC(=O)OC(C)(C)C |  |  |  |  | Metabolite_Detected | > 5.40 | > 6.00
32 | CCCCC[C@@H](C(=O)NCNC(=O)c1ccc(-c2ccc(C(=O)N[C@@H](CC(=O)O)C(=O)O)c(OCC(=O)O)c2)o1)[C@@H](CC)N(C=O)OC(=O)c1ccccc1C | Metabolite_Detected |  | > 10% | < 80% |  |  | 
33 | CCCCC[C@@H](C(=O)NCNC(=O)c1ccc(-c2ccc(C(=O)N[C@@H](CC(=O)OCOC(=O)C(C)C)C(=O)OCOC(=O)C(C)C)c(OCC)c2)o1)[C@@H](CC)N(O)C=O |  | Metabolite_Detected |  |  |  | > 5.40 | > 6.00
34 | CCCCC[C@@H](C(=O)NCNC(=O)c1ccc(-c2ccc(C(=O)N[C@@H](CC(=O)O)C(=O)O)c(OCC(=O)O)c2)o1)[C@@H](CC)N(C=O)OC(=O)C(CC)CC | Metabolite_Detected |  |  |  |  | > 5.40 | > 6.00
35 | CCCCC[C@@H](C(=O)NCNC(=O)c1ccc(-c2cc(OCC)cc(P(=O)(O)O)c2)o1)[C@@H](CC)N(C=O)OC(=O)c1ccccc1 |  |  | > 10% | < 80% | Metabolite_Detected |  | 
